Data reported in patent publication US20250325543A1, “EGFR TKIs FOR USE IN THE TREATMENT OF NON-SMALL LUNG CANCER” (ASTRAZENECA AB, priority 2020, published 2025).

Assays:
[1] = system: stage IB-IIIA EGFRm NSCLC patients; test: ADAURA phase 3 double-blind, randomized, placebo-controlled study of adjuvant AZD9291 after complete tumour resection; format: in vivo, human; details: for DFS HR (95% CI) / reduction in the risk of disease recurrence or death: osimertinib vs placebo
Experimental: Adjuvant chemotherapy should have consisted of a platinum based doublet given for a maximum of 4 cycles.
Patients were randomised 1:1, to receive either AZD9291 or placebo. […] Patients were randomised within 10 weeks following complete surgical resection if adjuvant chemotherapy was not administered, within 26 weeks following surgery if adjuvant chemotherapy was administered.
Accounting for patients who are found to have wild type EGFR, sample attrition and 10% screen fail rate for other reasons, it was estimated that approximately 3200 patients would be screened to randomize approximately 700 patients. Approximately 60% of patients were recruited from Asia and 40% from non-Asian countries. The proportion of patients randomized with stage 1B cancer was approximately 30% and the proportion of patients randomized with stage II-IIIA cancer was approximately 70%. Patients were stratified at randomization by stage (IB vs II vs IIIA), mutation type (Ex19Del/L858R either alone or in combination with other EGFR mutations) as confirmed by a central laboratory using a tissue based test, and race (Asian/non-Asian).
Patients undergo regular CT scan (chest and abdomen including liver and adrenal glands) with additional anatomy imaging, as indicated by signs and symptoms of the patient, for disease recurrence. Disease free survival (DFS) shall be measured from the date of randomization until date of disease recurrence or death (from any cause) in the absence of recurrence by investigational site assessment.
Male and female patients aged 18 years and over (patients from Japan/Taiwan aged at least 20 years) with histologically confirmed diagnosis of primary non-squamous non-small cell carcinoma of the lung, with complete surgical resection of the primary tumour, and who were classified post-operatively as stage IB, II or IIIA on the basis of pathologic criteria were eligible for this study (stage IB patients were excluded in Japan). Recruitment of patients with stage IB disease was closed when approximately 210 (30%) had been randomized and recruitment of patients with stage II-IIIA disease was closed when approximately […] (70%) had been randomized. Patients were confirmed to have a tumour that harbours one of the most common EGFR mutations known to be associated with EGFR-TKI sensitivity (Ex19Del; L858R) either alone or in combination with other EGFR mutations as confirmed by a central test.
Treatment with AZD9291 (80 mg once daily) or placebo commenced following randomization. Patients will continue on randomised treatment until recurrence of disease, treatment discontinuation criterion is met or treatment is completed.
AZD9291 (80 mg orally, once daily) or matching placebo, in accordance with the randomization schedule, was administered.
Disease-free survival is the primary endpoint in this study and is defined as the time from the date of randomization until the date of disease recurrence or death from any cause in the absence of disease recurrence. Disease recurrence is defined as evidence of disease recurrence on CT or MRI scan and/or pathological disease on biopsy by investigational site assessment. The primary population is the stage II/IIIA patients.
DFS rate at 2, 3, 4 and 5 years is defined as the proportion of patients alive and disease free at 2, 3, 4 and 5 years, respectively, estimated from Kaplan Meier plots of the primary endpoint of DFS at the time of the primary analysis.
DFS in the subset of patients with stage II-IIIA cancer will be analysed using a log rank test stratified by stage (II, IIIA), mutation type (Ex19Del, L858R either alone or in combination with other EGFR mutations) and race (Asian, Non-Asian) for the generation of the p-value and using the Breslow approach for handling ties.

[2] = system: patients with advanced mutation-positive EGFR (Ex19del or L858R) NSCLC; details: cited from earlier work
[3] = Stage IB/II/IIIA (overall population)
[4] = Stage IB/II/IIIA (overall population), listed as osimertinib
[5] = Stage II/IIIA patient population, immature OS (5% maturity)
[6] = patients with CNS metastases on a baseline brain scan, vs standard EGFR-TKIs

C=CC(=O)Nc1cc(Nc2nccc(-c3cn(C)c4ccccc34)n2)c(OC)cc1N(C)CCN(C)C [Osimertinib, N-(2-{2-dimethylaminoethyl-methylamino}-4-methoxy-5-{[4-(1-methylindol-3-yl)pyrimidin-2-yl]amino}phenyl) prop-2-enamide]
2 year DFS rate, % (95% CI) ([1]; Adjuvant chemotherapy received): 88.3%
2 year DFS rate, % (95% CI) ([1]; No adjuvant chemotherapy): 89.2%
2 year DFS rate, % (95% CI) ([1]; Stage IB): 87 (77, 93) %
Median DFS, months (95% CI) ([1]; Stage IB): NR (NC, NC)
2 year DFS rate, % (95% CI) [1, 3]: 88.8%
2 year DFS rate, % (95% CI) [1, 4]: 89%
2 year DFS rate, % (95% CI) ([1]; Stage II): 91 (82, 95)^ %
Median DFS, months (95% CI) ([1]; Stage II): NR (NC, NC)
2 year DFS rate, % (95% CI) ([1]; Stage II-IIIA): 89.5%
deaths (% of patients) [1, 5]: 3%
deaths (number of patients) [1, 5]: 8 deaths
2 year DFS rate, % (95% CI) ([1]; Stage IIIA): 88 (79, 94)^ %
Median DFS, months (95% CI) ([1]; Stage IIIA): 38.8 (38.6, NC)^ months
overall survival (in words) ([1]; immature OS (5% maturity)): trend towards survival favouring osimertinib
DFS HR (95% CI) ([1]; Stage IB): 0.50 (0.27, 0.94)
DFS HR (95% CI) [1, 3]: 0.21 (0.16, 0.28);
DFS HR (95% CI) [1, 4]: 0.21
DFS HR (95% CI) ([1]; Stage II): 0.17 (0.08, 0.31)
DFS HR (95% CI) ([1]; Stage II-IIIA): 0.17 (0.12, 0.23);
DFS HR (95% CI) ([1]; Stage II-IIIA, listed as osimertinib): 0.17 (0.12, 0.23)
DFS HR (95% CI) ([1]; Stage IIIA): 0.12 (0.07, 0.20)
DFS HR (95% CI) ([1]; adjuvant chemotherapy received): 0.17
DFS HR (95% CI) ([1]; no adjuvant chemotherapy): 0.17
reduction in the risk of disease recurrence or death ([1]; overall population): 79%
reduction in the risk of disease recurrence or death ([1]; primary population of stage II/IIIA patients): 83%
improvement in DFS (in words) ([1]; regardless of whether patients received prior adjuvant chemotherapy): consistent improvement in DFS
improvement in disease free survival (DFS) (in words) ([1]; stage IB/II/IIIA EGFRm NSCLC, adjuvant setting): statistically significant and clinically meaningful improvement
median overall survival ([2]; first-line therapy): 38.6 months
median progression free survival (PFS) ([2]; first-line therapy): 18.9 months
events of CNS progression, % patients ([2]; irrespective of known or treated CNS metastases at trial entry): 6%
hazard ratio for death ([2]; osimertinib vs comparator group): 0.80
PFS hazard ratio (HR) ([2]; osimertinib vs erlotinib or gefitinib): 0.46
median CNS PFS ([2]; patients with CNS metastases on a baseline brain scan): not reached
CNS PFS HR [2, 6]: 0.48
reduction in the risk of CNS progression [2, 6]: 52%
